Legend:
rat MCAO stroke model = experiment: 7-day rat MCAO efficacy study; assay type: in vivo, rats; settings: 0.225 mg/kg twice per day 7 days
Method: The 7-day rat MCAO study was done as described in [9]. The 250–275 g Wistar rats were used as another species is a requirement for preclinical stroke research. The duration of the right MCAO was 90 min. […] The first dose was given IV slowly via the […] at 5 min after ischemia/reperfusion. The following doses were given SC. At day 7 post-injury, a person blinded to the treatment groups assessed the neurological deficit and then brains were harvested for infarct volume measurements.

[1] = 3-day PK study in healthy mice; assay type: in vivo; settings: for liver level: 6 h after last injection
Method: Samples were prepared as described in [10] with modifications to accommodate the small tissue sizes and enhance the detection sensitivity. Quantitative liquid chromatography electrospray-ionization tandem mass spectrometry (LCMS/MS) analysis was performed on a Shimadzu 20A series HPLC (LC)—Applied Biosystems/MDS Sciex API 3200 QTrap or API 4000 QTrap tandem-mass spectrometer (MS/MS) as described earlier. The use of heptafluorobutyric acid (HFBA) mobile phase modifier as an ion-pairing agent increases the overall lipophilicity and volatility, which increases the retention and ionization efficiency of the analytes, affording an abundance of HFBA-associated ions. […] Since oxygen atoms are buried within the porphyrin cavity and thus not easily solvated, these compounds maintain similar redox properties and lipophilicity as their parent hexyl analogs, which makes them co-elute from the HPLC column and thus can be used as internal standards. (OH)FeTnBuOE-2-PyP^4+ was prepared as described for other Fe(III) N-alkylpyridylporphyrins and analogous (H2O)MnTnBuOE-2-PyP^5+ [13, 16]. The solvents employed were: A = 95:5 H2O:MeCN (0.1% HFBA); B = MeCN (0.1% HFBA). […] With the chosen solvent system, all four atropoisomers collapsed into a single peak, enhancing the sensitivity of the method to as low as 0.5 nM (nanomoles per L of tissue homogenate). Analyses were performed using a Phenomenex Luna C18 guard cartridge (ID × L, 2 × 4 mm) only. […] Their structures are also shown. Calibration samples in the 1–300 nM or 0.1–30 μM range (depending on the expected levels of MP) were prepared by adding known amounts of serially diluted pure standards into the plasma or homogenates of related tissues. The response was calculated as the ratio between the standard peak area and the internal standard peak area.
The study was designed to follow the dosing regime in a 3-day mouse MCAO efficacy study. […] Three mice were used per compound in each study. Mice were sacrificed 6 h after the last injection at day 3 and blood and tissues (liver and brain) collected. Blood was centrifuged at 2500 rpm for 10 min and plasma was harvested. Plasma and tissues were analyzed on porphyrin content by LCMS/MS.

mouse MCAO stroke model = experiment: 3-day mouse MCAO efficacy study; assay type: in vivo, mice
Method: We performed a mouse MCAO study to define a dose of FeHex for a larger rat MCAO study. The 81 C57Bl/6J mice (8–10 weeks old) were subjected to 90 min of MCAO right hemisphere occlusion. Mice were fasted overnight before injury. They were under isoflurane anesthesia during ischemia, and the pericranial temperature was automatically controlled at 37 °C using a surface heating and cooling system. Ischemia was made through a small window on the left temporal bone, and the main trunk of the middle cerebral artery was transiently tied with a fine silk suture for 90 min. Muscle and skin layers were closed after ischemia/reperfusion. Mice were allowed to awake and survive for 3 days. […] Mice were sacrificed under deep anesthesia at 3 days post-ischemia/reperfusion. The brain was quickly frozen in −20 °C 2-methybutane and stored in the freezer for histological analysis. Liver and brain were taken for LCMS/MS analysis of the levels of FeHex. Body weight, rotarod performance, and Corner test were assessed before and 3 days after injury. Neurological deficit (neuroscore) and infarct volume were evaluated at 3 days after injury.
The rotarod test was performed on the day before surgery and 3 days after ischemia/reperfusion. Three trials were performed with a 15-min intra-trial rest. Mice were placed on the rod and then the machine was started. The speed was accelerated from 4 turns/min to 40 turns per min. The latency to fall from the rod was automatically recorded. The data are presented in % and are calculated as [(reading after injury)/(reading before surgery-baseline reading)] × 100. Neurological deficit was assessed based on the neuroscore system we previously used that includes the general status and motor and sensory functions. For the corner test, two clean boards were placed in “V” fashion at an angle of 30° relative to the walking axes and mice were left to walk in towards the apex of the “V”. Mice usually make left turns more frequently when injury is severe enough. The left turn was calculated from the number of left (L) turn/total turns (L + Right turn). Normal animals would have as many left as right turns (50% = normal). When all turns are to the left, the value at y-axis is 100%, the most severe score. Body weight loss is expressed as a difference in body weight at 3 days post-stroke minus body weight on the surgery day.

mice = settings: cited from earlier work
[2] = SC and IV 0.5 mg/kg twice daily 3 days
[3] = 0.225 mg/kg IV twice daily 3 days

## monohydroxo Fe(III) meso-tetrakis(N-n-hexylpyridinium-2yl)porphyrin [FeHex]
Rat MCAO stroke model
  p, cortex infarct volume vs vehicle: 0.48
  p, neuroscore vs vehicle: 0.28
  p, subcortex infarct volume vs vehicle: 0.11
  p, total infarct volume vs vehicle: 0.31
Rat MCAO stroke model; first dose IV, then SC
  neurological deficit (neuroscore and infarct volume): only slightly, but insignificantly, improved
[1]; IV 0.5 mg/kg twice daily 3 days
  liver level: 290 nM
[1]; SC 0.5 mg/kg twice daily 3 days
  liver level: 126 nM
[1]; [2]
  liver levels relative to MnHex: much lower levels
  plasma levels relative to MnHex: Higher levels
Mouse MCAO stroke model; [3]
  neuroscore: improved
  p, Corner test vs vehicle: 0.09
  p, body weight change vs vehicle: 0.0347
  p, infarct volume vs vehicle: 0.48
  p, neuroscore vs vehicle: 0.047
  p, rotarod vs vehicle: 0.59
Mouse MCAO stroke model; 0.225 mg/kg IV twice daily 3 days, from 90 min post ischemia/reperfusion
  body weights: improved
Mouse MCAO stroke model; 0.05, 0.225 and 1 mg/kg IV twice daily 3 days
  infarct volume relative to vehicle: No significant change
mice
  toxicity to mice relative to MnHex: less toxic to mice
mice; mice, 5 mg/kg IP injection
  toxicity / death of mice: no toxicity

Source: publication PMC7346179, “Fe Porphyrin-Based SOD Mimic and Redox-Active Compound, (OH)FeTnHex-2-PyP^4+, in a Rodent Ischemic Stroke (MCAO) Model: Efficacy and Pharmacokinetics as Compared to Its Mn Analogue, (H2O)MnTnHex-2-PyP^5+” (Antioxidants, 2020)
